In patent publication US20060069132A1, “Azolecarboxamide herbicides” (priority 2004, published 2006):

Tests used:
barnyardgrass [1] = assay: Test B pre-/postemergence herbicide test; assay type: in vivo, Echinochloa crus-galli
Outline: (§1)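 Test chemicals in a non-phytotoxic solvent mixture with surfactant were applied preemergence to seeded species and postemergence to plants 2-18 cm tall (1- to 4-leaf stage); rice and barnyardgrass were also tested in a flooded paddy at the 2-leaf stage. Visual rating versus controls after 13-15 days in greenhouse, scale 0 (no effect) to 100 (complete control).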

Surinam grass = assay: Test B pre-/postemergence herbicide test; assay type: in vivo, Urochloa decumbens
Outline: (§2)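 Pre: seeds sown, then sprayed. Post: 1–4-leaf plants (2–18 cm) sprayed at the same time. Paddy: flooded, treated at 2-leaf stage. Formulation: non-phytotoxic solvent with surfactant. Greenhouse 13–15 days; visual 0–100 score relative to controls.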

ducksalad = assay: Test B flooded paddy test; assay type: in vivo, Heteranthera limosa; settings: 1000 g ai/ha, scale 0 to 100 (0 no effect, 100 complete control)
Outline: (§3)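 Paddy species grown to the 2-leaf stage under flooding; blackgrass sprayed postemergence at 2–18 cm (1- to 4-leaf stage). Plants kept in a greenhouse for 13 to 15 days, then visually rated against controls on 0 (no effect) to 100 (complete control).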

[2] = system: small flower umbrella sedge; assay: Test B flooded paddy test; assay type: in vivo, Cyperus difformis; settings: 1000 g ai/ha, scale 0 to 100 (0 no effect, 100 complete control)
Outline: as §3

cocklebur = assay: Test B pre-/postemergence herbicide test; assay type: in vivo, Xanthium strumarium
Outline: as §1

corn = assay: Test B pre-/postemergence herbicide test; assay type: in vivo, Zea mays
Outline: as §2

pigweed = assay: Test B pre-/postemergence herbicide test; assay type: in vivo, Amaranthus retroflexus
Outline: as §2

lambsquarters = assay: Test B pre-/postemergence herbicide test; assay type: in vivo, Chenopodium album
Outline: as §2

morningglory = assay: Test B pre-/postemergence herbicide test; assay type: in vivo, Ipomoea coccinea
Outline: as §1

giant foxtail = assay: Test B pre-/postemergence herbicide test; assay type: in vivo, Setaria faberi
Outline: as §2

velvetleaf = assay: Test B pre-/postemergence herbicide test; assay type: in vivo, Abutilon theophrasti
Outline: as §2

blackgrass = assay: Test B postemergence herbicide test; assay type: in vivo, Alopecurus myosuroides
Outline: as §3

wheat = assay: Test B postemergence herbicide test; assay type: in vivo, Triticum aestivum; parameters: key to Wheat plant response rating: 0 = no effect, 100 = complete control
Outline: (§4)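 Each value is a visual 0–100 response rating taken against controls 13 to 15 days after treatment in the greenhouse. Plants received formulated chemical postemergence at the 1- to 4-leaf stage or, in flooded paddy, at the 2-leaf stage.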

wild oat = assay: Test B postemergence herbicide test; assay type: in vivo, Avena fatua
Outline: as §4

barnyardgrass [3] = assay: Test B flooded paddy test; assay type: in vivo, Echinochloa crus-galli; settings: 1000 g ai/ha, scale 0 to 100 (0 no effect, 100 complete control)
Outline: as §3

large crabgrass = assay: Test B pre-/postemergence herbicide test; assay type: in vivo, Digitaria sanguinalis
Outline: as §2

rice = assay: Test B flooded paddy test; assay type: in vivo, Oryza sativa; settings: 1000 g ai/ha, scale 0 to 100 (0 no effect, 100 complete control)
Outline: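 Plants grow to 1- to 4-leaf stage (2–18 cm) for postemergence spraying, or to 2-leaf stage for the paddy test. Formulated compound is applied. Greenhouse holding lasts 13–15 days. Response is scored visually relative to controls, 0 no effect to 100 complete control; a dash means no result.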

[4] = 125 g ai/ha, 0 is no effect, 100 is complete control, preemergence
[5] = 125 g ai/ha, visual rating, scale 0 (no effect) to 100 (complete control), postemergence
[6] = Postemergence, 500 g ai/ha, scale 0 (no effect) to 100 (complete control)
[7] = Postemergence, 250 g ai/ha, scale 0 (no effect) to 100 (complete control)
[8] = postemergence, 62 g ai/ha, scale 0 to 100

CCN(C)C(=O)c1ccc(F)c(NC(=O)c2nn(C(C)C)nc2C)c1 [Compound 403]
Plant response rating (0 to 100 scale), Barnyardgrass (barnyardgrass [1]; [4]): 0
Barnyardgrass plant response rating (barnyardgrass [1]; [5]): 0
Barnyardgrass plant response rating (barnyardgrass [1]; [6]): 0
Plant response rating (0 to 100 scale), Surinam Grass (Surinam grass; [4]): 0
Surinam Grass plant response rating (Surinam grass; [5]): 0
Surinam Grass plant response rating (Surinam grass; [6]): 10
Ducksalad plant response rating (ducksalad): 0
Sedge, Umbrella plant response rating [2]: 10
Plant response rating (0 to 100 scale), Cocklebur (cocklebur; [4]): 0
Cocklebur plant response rating (cocklebur; [5]): 0
Cocklebur plant response rating (cocklebur; [6]): 0
Plant response rating (0 to 100 scale), Corn (corn; [4]): 0
Corn plant response rating (corn; [5]): 0
Corn plant response rating (corn; [6]): 0
Plant response rating (0 to 100 scale), Pigweed (pigweed; [4]): 0
Pigweed plant response rating (pigweed; [5]): 0
Pigweed plant response rating (pigweed; [6]): 0
Plant response rating (0 to 100 scale), Lambsquarters (lambsquarters; [4]): 0
Lambsquarters plant response rating (lambsquarters; [5]): 0
Lambsquarters plant response rating (lambsquarters; [6]): 10
Plant response rating (0 to 100 scale), Morningglory (morningglory; [4]): 0
Morningglory plant response rating (morningglory; [5]): 0
Morningglory plant response rating (morningglory; [6]): 0
Plant response rating (0 to 100 scale), Foxtail, Giant (giant foxtail; [4]): 0
Foxtail, Giant plant response rating (giant foxtail; [5]): 0
Foxtail, Giant plant response rating (giant foxtail; [6]): 0
Plant response rating (0 to 100 scale), Velvetleaf (velvetleaf; [4]): 0
Velvetleaf plant response rating (velvetleaf; [5]): 0
Velvetleaf plant response rating (velvetleaf; [6]): 10
Blackgrass plant response rating (blackgrass; [5]): 0
Blackgrass plant response rating (blackgrass; [6]): 0
Wheat plant response rating (wheat; [5]): 0
Wheat plant response rating (wheat; 500 g ai/ha, scale 0 to 100, 0 no effect, 100 complete control, preemergence): 0
Wheat plant response rating (wheat; [6]): 0
Oat, Wild plant response rating (wild oat; [5]): 0
Oat, Wild plant response rating (wild oat; [6]): 0
Barnyardgrass plant response rating (barnyardgrass [3]): 0
Plant response rating (0 to 100 scale), Crabgrass, Large (large crabgrass; [4]): 0
Crabgrass, Large plant response rating (large crabgrass; [5]): 0
Crabgrass, Large plant response rating (large crabgrass; [6]): 0
Rice plant response rating (rice): 0

CCOC(=O)c1ccc(F)c(NC(=O)c2cc(C3CC3)nn2CC)c1 [Compound 74]
Barnyardgrass plant response rating (barnyardgrass [1]; [7]): 0
Barnyardgrass plant response rating (barnyardgrass [1]; [8]): 0
Surinam Grass plant response rating (Surinam grass; [7]): 10
Surinam Grass plant response rating (Surinam grass; [8]): 0
Ducksalad plant response rating (ducksalad; visual rating, 13 to 15 days): 0
Sedge, Umbrella plant response rating ([2]; visual rating, 13 to 15 days): 70
Cocklebur plant response rating (cocklebur; [7]): 0
Cocklebur plant response rating (cocklebur; [8]): 0
Corn plant response rating (corn; [7]): 0
Corn plant response rating (corn; [8]): 0
Pigweed plant response rating (pigweed; [7]): 20
Pigweed plant response rating (pigweed; [8]): 20
Lambsquarters plant response rating (lambsquarters; [7]): 10
Lambsquarters plant response rating (lambsquarters; [8]): 0
Morningglory plant response rating (morningglory; [7]): 10
Morningglory plant response rating (morningglory; [8]): 0
Foxtail, Giant plant response rating (giant foxtail; [7]): 10
Foxtail, Giant plant response rating (giant foxtail; [8]): 10
Velvetleaf plant response rating (velvetleaf; [7]): 30
Velvetleaf plant response rating (velvetleaf; [8]): 0
Blackgrass plant response rating (blackgrass; [7]): 50
Blackgrass plant response rating (blackgrass; [8]): 30
Wheat plant response rating (wheat; 250 g ai/ha, scale 0 to 100, 0 no effect, 100 complete control, preemergence): 0
Wheat plant response rating (wheat; [7]): 20
Wheat plant response rating (wheat; [8]): 20
Oat, Wild plant response rating (wild oat; [7]): 40
Oat, Wild plant response rating (wild oat; [8]): 30
Barnyardgrass plant response rating (barnyardgrass [3]; visual rating, 13 to 15 days): 0
Crabgrass, Large plant response rating (large crabgrass; [7]): 10
Crabgrass, Large plant response rating (large crabgrass; [8]): 0
Rice plant response rating (rice; visual rating, 13 to 15 days): 0
